The subject of data set [1] is psoriatic xenotransplants (normal human skin grafted, psoriatic patient T-cell injected). The data set is described as follows: Human skin xenotransplant model of psoriasis in beige-SCID mice: histological evaluation and epidermal thickness. It counts as in vivo. As to conditions: for Mean epidermal thickness: mean of the group. The method, then: The efficacy of the topical stable Fenoldopam compositions developed according to the current disclosure for the treatment of psoriasis is evaluated in a human skin xenotransplant model in mice. Human skin xenotransplant models are optimally suited for performing preclinical assays that explore novel anti-psoriatic agents/treatment strategies before initiating clinical trials. The purpose of this study is to evaluate the effectiveness of Fenoldopam mesylate formulations on the histological parameters of psoriasis in the human T-cell-driven model of psoriasis.
The patients included in the study have classic plaque psoriasis, and were not treated for the disease. Normal skin from one healthy volunteer is obtained for grafting.
Healthy human skin pieces with a width of 0.4 mm and surface area of 1.5×1.5 cm are provided from residual skin of routine plastic surgery procedures from the Plastic Surgery Department of the Rambam Health Care Campus, Haifa, Israel. In addition, 20 mL blood samples were taken from the psoriatic patients.
The normal healthy human donor skin is transplanted onto the Beige-severe combined immuno-deficient mice (SCID) (weight ˜20 g).
The mice are divided into several treatment groups. Mice of each group receive activated allogeneic T-cells expressing high levels of NK cells receptors from the psoriatic donor.
Peripheral Blood Mononuclear Cells (PBMCs) from the psoriatic patients' blood are isolated and cultured in the presence of a high dose of IL-2 (100 U/mL of media) for 14 days to activate allogeneic T-cells expressing high levels of NK cells receptors.
Four weeks following the engraftment, each mouse is injected with 1×10^7 activated allogeneic IL2-enriched PBMCS from psoriatic patients (1×10^7 cells injected/mouse). Cells from different psoriasis patients are distributed equally between treatment groups. Each patient is represented in each treatment group.
Two weeks following the injections, the mice are divided randomly and treated daily for 14 constitutive days with the different topical formulations.
(§1) Fourteen days after starting the treatment (four weeks following the injections), blood samples are taken and the skin is harvested. The grafts are analyzed histologically and immunohistochemically for psoriatic parameters.
In this model, a psoriasis-like phenotype is induced in normal human skin grafted onto beige-severe combined immunodeficient mice by intradermal injection of natural killer/T-cells derived from psoriatic patients (Gilhar et al., J Invest Dermatol. 2002 Aug;119(2):384-91.).
The purpose of these further experiments was to verify the therapeutic effect of FMT and compare the therapeutic effects of two doses (1% versus 2%) of two different formulations (cream versus gel).
In order to address the aim of the experiment, the psoriatic humanized mice were established. 10 psoriatic patients were recruited (seven males and three females), mean age 44 years, ranging from 22 to 61 years for testing. All patients had classic plaque psoriasis. None of the patients had been treated. Normal skin from one healthy volunteer was obtained for grafting.
The experiment comprised 72 mice divided into eight groups (Table 10). All of the mice were injected with T-cells expressing NK receptors obtained from psoriatic patients according to the protocol. Thereafter, the mice were separated as follows: Group 1: non-treated control; Group 2: dexamethasone; Group 3: FMT Gel 1%; Group 4: FMT Gel 2%; Group 5: Gel (vehicle); Group 6: FMT Cream 1%; Group 7: FMT Cream 2%; and Group 8: Cream (vehicle). All groups were treated from day 14 until day 28 post T-cells injection.

In data set [2] the test system is inflammatory markers of the psoriatic xenotransplants (Ki-67, HLA-DR, CD8, CD4, IL-17). The data set is described as follows: Human skin xenotransplant model of psoriasis: immunohistochemical staining for Ki-67, HLA-DR, CD8, CD4 and IL-17. Type of data set: in vivo. The method, then: as §1
We then stained skin sections derived from the various human xenotransplants for Ki-67 and HLA-DR: the first, a marker of cellular hyperproliferation and the second, for immune stimulation. Strong expression of Ki-67 was observed along the lower part of the epidermis in all control and vehicle groups and in the non-responders FMT xenotransplants. […] However, weak or absent HLA-DR expression was observed along the epidermis in the responders transplants treated with FMT.
Negative expression—no staining Mild—minor level of cell infiltrates of positive cells along the dermis Dense—intense level of cell infiltrates of positive cells along the dermis
To characterize the inflammatory infiltrate in the skin, we examined the expression of CD8, CD4 and IL-17+cells, which mark T lymphocytes (FIG. 1 and Tables 15, 16).
Negative expression—no staining Mild—minor level of cell infiltrates of positive cells along the dermis Dense—intense level of cell infiltrates of CD8+, CD4+IL17+positive cells along the dermis

For data set [3] the following is noted: cited from earlier work.
[4] abbreviates: topical bid, day 14 until day 28 post T-cells injection.
The mark [5] stands for this setting: intense level of cell infiltrates.
Setting [6] is: minor level of cell infiltrates.

Read-outs that look alike come from different tables or passages of the source. Marks after values point to notes of the source that are not given here.

Consider `C[C@@H]1C[C@H]2[C@@H]3CCC4=CC(=O)C=C[C@]4(C)[C@@]3(F)[C@@H](O)C[C@]2(C)[C@@]1(O)C(=O)CO` [Dexamethasone], for which the Epidermal thickness in data set [1] (Donor 1) is recorded as 338 μm. In data set [1] (Donor 2), this compound yielded an Epidermal thickness of 280 μm. In addition, in data set [1] (Donor 3), the Epidermal thickness came to 290 μm. Moreover, the Epidermal thickness in data set [1] (Donor 4) is reported as 300 μm. In data set [1] (Donor 5), this compound displayed an Epidermal thickness of 305 μm. For the same compound, the Epidermal thickness in data set [1] (Donor 6) stood at 260 μm. Also, the Mean epidermal thickness in data set [1] (listed as Dexa) is recorded as 295* μm. In data set [1] (listed as dexamethasone), this compound yielded a Mean epidermal thickness of 295 ±26 μm. Besides, in data set [1] (setting [4]), the “Complete Recovery (grafts/total)” value is 5/6, the “Partial Recovery (grafts/total)” value is listed as 1/6 and the “Psoriatic Features (grafts/total)” value is recorded as 0/6. Further, the “Epidermal HLA-DR Expression: Diffuse (grafts/total)” value in data set [2] (Diffuse—more than 50% of the epidermal area) is 0/6. The “Epidermal HLA-DR Expression: Focal (grafts/total)” value in data set [2] (Focal—less than 50% of the epidermal area) is given as 1/6. In data set [2] (Non responders grafts), the “CD4 Expression: Dense” value is listed as 0/6, the “CD4 Expression: Negative/Mild” value was 0/6, the “CD8 Expression: Dense” value is recorded as 0/6 and the “CD8 Expression: Negative/Mild” value is reported as 0/6. Further, in data set [2] (Non responders grafts), the “Dermal HLA-DR Expression: Dense” value is listed as 0/6, the “Dermal HLA-DR Expression: Negative/Mild” value is given as 0/6, the “IL-17 Expression: Dense” value was 0/6 and the “IL-17 Expression: Negative/Mild” value is 0/6. Further, in data set [2] (Responders grafts), the “CD4 Expression: Dense” value is listed as 0/6, the “CD4 Expression: Negative/Mild” value is given as 6/6, the “CD8 Expression: Dense” value was 0/6 and the “CD8 Expression: Negative/Mild” value was 6/6. Also, in data set [2] (Responders grafts), the “Dermal HLA-DR Expression: Dense” value was 0/6, the “Dermal HLA-DR Expression: Negative/Mild” value is on record as 6/6, the “IL-17 Expression: Dense” value was 0/6 and the “IL-17 Expression: Negative/Mild” value is 6/6. For the same compound, in data set [2] (in vivo), the “Epidermal HLA-DR Expression: Negative (grafts/total)” value is given as 5/6. Moreover, in data set [2] (setting [5]), the “CD4 positive cells along the dermis: Dense” value is given as 0/10, the “CD8 positive cells along the dermis: Dense” value is 0/10 and the “IL-17 positive cells along the dermis: Dense” value is reported as 0/10. Further, the “Dermal HLA-DR Expression: Dense (grafts/total)” value in data set [2] (intense level of cell infiltrates of positive cells along the dermis) was 0/6. For the same compound, in data set [2] (setting [6]), the “CD4 positive cells along the dermis: Mild” value is 2/6, the “CD8 positive cells along the dermis: Mild” value is reported as 1/6 and the “IL-17 positive cells along the dermis: Mild” value is reported as 1/6. Also, the “Dermal HLA-DR Expression: Mild (grafts/total)” value in data set [2] (minor level of cell infiltrates of positive cells along the dermis) was 2/6. Besides, in data set [2] (no staining), the “CD4 positive cells along the dermis: Negative” value is recorded as 4/6, the “CD8 positive cells along the dermis: Negative” value is given as 5/6, the “Dermal HLA-DR Expression: Negative (grafts/total)” value is given as 4/6 and the “IL-17 positive cells along the dermis: Negative” value is 5/6.
As to `CS(=O)(=O)O.Oc1ccc(C2CNCCc3c2cc(O)c(O)c3Cl)cc1` (centres unmarked) [Fenoldopam mesylate, 6-chloro-2,3,4,5-tetrahydro-1-(4-hydroxyphenyl)-1H-3-benzazepine-7,8-diol, methanesulfonate], the solubility entry in data set [3] (in propylene glycol) was “soluble”; in data set [3] (in water, ethanol and methanol), “sparingly soluble”.

The record behind these values is patent US20230059107A1, “STABLE TOPICAL COMPOSITIONS OF FENOLDOPAM” (TARO PHARMACEUTICAL INDUSTRIES LTD., priority 2019, published 2023).
